# Experimental data published in US10845371B2, “Soluble MANF in pancreatic beta-cell disorders” (University of Massachusetts, priority 2012, dated 2020).
# Ends that are not written are not given here. Peptide text beside a SMILES is read from it. * marks the point of attachment. Cbz = O=C(OCc1ccccc1)*
# Tests used:
# [1] = test system: MEROS-GFP (ER redox state) in INS-1 832/13 cells; experiment: MEROS-GFP ratio by flow cytometry in INS-1 832/13 cells; assay type: cell-based, rat; conditions: for Median MEROS-GFP ratio (FACS): normalized to untreated, DTT 0.2-10 mM, 1 mM H2O2 30 min, TM 5 μM, TG 10 nM 24 h or 1 μM 4 h, BreA 100 ng/mL, MG132, palmitate 0.2-0.5 mM, hIAPP 10 μM, 24 h, FIGS. 17-24
# Experimental: FIG. 15 is fluorescence-assisted cell sorting (FACS) data of INS-1 832/13 cells stably-transfected with MEROS-GFP following no treatment or treatment with DTT (0.2, 0.5, or 10 mM DTT). The data was collected using excitation wavelengths of 488 nm and 405 nm, and an emission spectrum of 510 nm.
# FIG. 16 is a histogram of FACS data of INS-1 832/13 cells stably-transfected with MEROS-GFP following no treatment or treatment with DTT (0.2 mM, 0.5 mM, or 10 mM DTT). The horizontal axis represents the MEROS-GFP ratio and the vertical axis represents the number of cells.
# FIG. 17 is a graph of the median MEROS-GFP ratio in INS-1 832/13 cells stably-transfected with MEROS-GFP following no treatment or treatment with DTT (0.2, 0.5, or 10 mM DTT). The MEROS-GFP values shown are normalized to the untreated values.
# FIG. 18 is two graphs showing data from FACS analysis of INS-1 832/13 cells stably-transfected with MEROS-GFP following no treatment or treatment with 1 mM H2O2 for 30 minutes. The right graph is a histogram of the MEROS-GFP ratio in INS-1 832/13 cells not treated or treated with 1 mM H202.
# FIG. 19 is a graph of the median MEROS-GFP ratio calculated in INS-1 832/13 cells using FACS analysis following no treatment or treatment with tunicamycin (TM) (5 μM; 24 hours), thapsigargin (TG) (10 nM; 24 hours), TG (1 μM; 4 hours), brefeldin A (BreA) (100 ng/mL; 24 hours), or MG132 ([…]; 24 hours). […] The data are normalized to the median MEROS-GFP ratio calculated for the untreated cells.
# The error bars represent ±S.D. The data are normalized to the median MEROS-GFP ratio calculated for the untreated cells.
# FIG. 24 is a graph of the median MEROS-GFP ratio in INS-1 832/13 cells left untreated or treatment with human islet amyloid polypeptide (IAPP) (10 μM; 24 hours), mouse IAPP (10 μM; 24 hours), or cytokines ([…] (5 ng/mL), INFγ (100 ng/mL), and TNFα (25 ng/mL); 24 hours)). The error bars represent ±S.D. The data are normalized to the median MEROS-GFP ratio calculated for the untreated cells.
# Flow cytometry was used to precisely monitor the MEROS-GFP ratio in vivo.
# Experiments were performed to study the relationship between the UPR and the heterogeneity of the redox state. In these experiments, both the redox state and the activation levels of the UPR were monitored in the same cells. To achieve this, a UPR reporter gene encoding the red fluorescent protein, mCherry, driven by the human BiP promoter was constructed. […] This BiP-mCherry reporter plasmid was transfected into INS-1 832/13 cells expressing MEROS-GFP, and FACS analysis was used to monitor the MEROS-GFP ratio and the activation levels of the UPR via BiP-mCherry in the same cells (FIG. 31). The activation levels of BiP-mCherry and the MEROS-GFP ratio were monitored following the induction of ER stress. In these experiments, INS-1 832/13 cells expressing MEROS-GFP were plated onto 6-well plates, treated with each compound for indicated times, and then harvested by trypsinization. After washing with phosphate buffered saline, cells were resuspended in the 11 mM glucose-Hanks buffered salt solution. Flow cytometry analyses were performed with LSRII (BD).
# [2] = test system: MEROS-GFP (ER redox state) in INS-1 832/13 cells; experiment: MEROS-GFP ratio by fluorescent plate reader in INS-1 832/13 cells; assay type: cell-based, rat; conditions: 30 minutes; H2O2 0.1 or 1 mM, DTT 0.1-10 mM, FIG. 12
# Experimental: FIG. 12 is a graph of the MEROS-GFP ratio in INS-1 832/13 cells left untreated (no label), or treated with H2O2 (1 or 0.1 mM H2O2) or DTT (0.1, 0.2, 0.5, 1, 2, 5, or 10 mM DTT). The MEROS-GFP ratio was determined using a plate reader. The data shown are mean±S.D. (n=3).
# The ratio between fluorescence from excitation 473 nm versus 394 nm normalized to wild-type untreated cells is called the MEROS-GFP ratio. The MEROS-GFP ratio was determined using a fluorescent plate reader. In these experiments, the INS-1 832/13 cells were plated onto a 96-well plate at 50,000 cells/well, the cells treated with H2O2 or DTT at various concentrations for 30 minutes, and the fluorescence at excitation wavelength 473 nm and emission wavelength 510 nm (for reduced MEROS-GFP) or at excitation wavelength 394 nm and emission wavelength 510 nm (for oxidized MEROS-GFP) was measured. The MEROS-GFP ratio was determined after substraction of background signal.
# [3] = test system: MEROS-GFP in INS-1 832/13 cells; experiment: Confocal microscopy of MEROS-GFP fluorescence; assay type: cell-based, rat; conditions: 2 mM DTT, FIG. 11
# Experimental: FIG. 11 is a set of four confocal microscopy images of MEROS-GFP gathered using a 476-nm excitation wavelength (bottom two panels) or a 405-nm excitation wavelength (top two panels) in INS-1 832/13 cells treated with (right two panels) or without (left two panels) 2 mM DTT.
# [4] = test system: MEROS-GFP in INS-1 832/13 cells; experiment: Non-reducing SDS-PAGE of AMS-modified MEROS-GFP; assay type: cell-based, rat; conditions: 2 mM DTT, FIG. 13
# Experimental: FIG. 13 is photograph of non-reducing polyacrylamide gel electrophoresis (PAGE) of 4-acetamido-4′-maleimidylstilbene-2, 2′-disulfonic acid (AMS)-modified MEROS-GFP in lysate from cells left untreated (left lane) or treated with 2 mM DTT (right lane). The lysates were either left untreated (−βME) (top) or were treated with β-mercaptoethanol (+βME) (bottom) prior to electrophoresis.
# Additional experiments were performed to confirm that the MEROS-GFP ratio reflected changes in its redox state in vivo. In these experiments, the redox state of MEROS-GFP was monitored using non-reducing SDS-PAGE in combination with the thiol-alkylating reagent, 4-acetamido-4′-maleimidylstilbene-2, 2′-disulfonic acid (AMS). In these experiments, INS-1 832/13 cells left untreated or treated with 2 mM DTT, were lysed with 1× SDS-PAGE sample buffer containing 25 mM AMS with or without 2-β-mercaptoethanol, boiled at 95° C. for 10 minutes, electrophoresed using SDS-PAGE, and immunoblotted using an anti-GFP antibody.
# [5] = test system: MEROS-GFP (ER redox state) in NSC34 cells; experiment: Time course of MEROS-GFP ratio in NSC34 cells; assay type: cell-based; conditions: 1 mM DTT for 10 minutes, then wash, FIG. 14
# Experimental: FIG. 14 is a graph showing a time course of the MEROS-GFP ratio in NSC34 cells that are treated with 1 mM DTT for 10 minutes, and then washed. The MEROS-GFP ratio was calculated at each minute interval between one minute prior to treatment to four minutes after the wash. The bottom line represents the fluorescence observed with excitation at 473 nm, the black line represents the MEROS-GFP ratio, and the light grey line represents the fluorescence with excitation at 394 nm (n=3; S.D.).
# The MEROS-GFP ratio was also monitored in DTT-treated cells at different time points.
# [6] = test system: MEROS-GFP (ER redox state) in INS-1 832/13 cells; experiment: MEROS-GFP pilot screen of 1280-compound library and follow-up screens; assay type: cell-based, rat; conditions: 0.2 mM DTT challenge for 2 hours, 96-well plates; untreated 0.037
# Experimental: A pilot screen of a 1280-compound library (MicroSource), a collection of 1,040 U.S. drugs and 240 international drugs (FIG. 39) was performed. In this experiment, INS-1 832/13 cells stably-expressing MEROS-GFP were seeded (20,000 cells/well) in black optical 96-well plates. After 24 hours, 2 μL of each compound was added using the TeMo liquid handling robot. After another 24 hours, cells were challenged with 0.2 mM DTT, a strong reducing agent, for 2 hours, and then the MEROS-GFP ratio was calculated.
# [7] = test system: MANF; experiment: MANF protein (immunoblot) and mRNA (real-time PCR) in INS-1 832/13 cells treated with ER stress inducers; assay type: cell-based, rat; conditions: 24 hours; for MANF mRNA levels: 5 μM tunicamycin or 20 nM thapsigargin, FIG. 2
# Experimental: FIG. 1 is an immunoblot showing the levels of MANF protein in concentrated medium from a culture of a rat pancreatic β-cell line (INS-1 832/13) or in lysate from the rat pancreatic β-cell line (INS-1 832/13) after no treatment or treatment with thapsigargin (50 nM) or tunicamycin (0.5 μg/mL) for 24 hours.
# FIG. 2 is a graph showing the relative expression of MANF mRNA in a rat pancreatic β-cell line (INS-1 832/13) cultured under the following conditions: 11 mM glucose (24 hours); 25 mM glucose (24 hours); 25 mM glucose (48 hours); 25 mM glucose (72 hours); 11 mM glucose and 5 μM tunicamycin (TM) (24 hours); or 11 mM glucose and 20 nM thapsigargin (Tg) (24 hours). The data shown were generated using quantitative real-time PCR (n=3, S.D.).
# (§1) Experiments were performed to determine if expression of soluble MANF is induced in pancreatic β-cells in response to endoplasmic reticulum stress. These experiments were performed using rodent pancreatic β-cell lines (INS-1 832/13 and MIN6), primary mouse and human islets, and two different chemical agents that induce endoplasmic reticulum stress (thapsigargin and tunicamycin). INS-1 832/13 cells were cultured in RPMI-1640 containing 10% fetal bovine serum, penicillin, streptomycin, sodium pyruvate, and 0.1% β-mercaptoethanol. Primary islets were obtained from Prodo, and plated into 6-well plates precoated with laminin V produced by 804G cells, and cultured in CMRL medium supplemented with fetal bovine serum, non-essential amino acids, sodium pyruvate, and antibiotics.
# [8] = test system: MANF; experiment: MANF mRNA in mouse primary islets treated with thapsigargin (real-time PCR); assay type: cell-based; conditions: 0.5 μM thapsigargin, 6 hours, FIG. 3
# Experimental: FIG. 3 is a graph showing the relative expression of MANF, WFS1, TXNIP, and CHOP mRNA in mouse primary islets cultured five days with 5 mM glucose (LG), 11 mM glucose (MG), or 25 mM glucose (HG), or five days with 5 mM glucose (LG) and 6 hours with 0.5 μM thapsigargin (TG). The data shown were generated using quantitative real-time PCR (n=3; S.D.).
# as §1
# (§2) A second set of experiments were performed using human primary islets from two human donors.
# [9] = test system: MANF; experiment: MANF mRNA and soluble MANF protein in human primary islets treated with thapsigargin; assay type: cell-based; conditions: thapsigargin 0.25 μM, 24 hours
# Experimental: The data shown were generated using quantitative real-time PCR (n=3; S.D.).
# In this experiment, human MANF was immunoprecipitated using a rabbit anti-human MANF antibody (Proteintech), and the same antibody was used to develop the immunoblot.
# as §1, §2
# [10] = test system: INS-1 832/13 cells; experiment: Percentage of reduced cells (MEROS-GFP ratio >2) by flow cytometry after fatty acids; assay type: cell-based, rat; conditions: 0.5 mM palmitate plus 0.5 mM oleic or linoleic acid, 24 hours, FIG. 30
# Source text: The y-axis represents fluorescence following excitation using 488 nm and the x-axis represents fluorescence following excitation using 405 nm.
# The data for cells treated with palmitate is shifted to the right.
# The error bars indicate ±standard deviation (**p<0.01).
compound,measurement,setting,value
"human islet amyloid polypeptide (hIAPP): human islet amyloid polypeptide, physiological inducer of ER stress (KCNTATCATQRLANFLVHSSNNFGAILSSTNVGSNTY; not fully specified (C-terminus, bridges); cysteine pairing not given here; UniProt P10997 34-70, looked up)",Median MEROS-GFP ratio (FACS),[1],increased
"O[C@H](CS)[C@H](O)CS (racemic) [DTT, dithiothreitol]",MEROS-GFP ratio (plate reader),[2],increased the MEROS-GFP ratio in a dose-dependent manner
same,MEROS-GFP fluorescence from 476 nm excitation,[3],significantly increased
same,"Redox state of MEROS-GFP (AMS, non-reducing SDS-PAGE)",[4],fully reduced MEROS-GFP in vivo
same,Time to reduction of the ER (MEROS-GFP ratio),[5],ER could be reduced within a few minutes
same,Ratio of fluorescence from excitation at 488 nm versus 405 nm (FACS),"[1]; DTT 0.2, 0.5, 10 mM, FIGS. 15 and 16",dose dependent increase
same,Median MEROS-GFP ratio (FACS),[1],increased the median MEROS-GFP ratio in a dose-dependent manner
same,Average MEROS-GFP ratio in the pilot screen,[6],0.069 (S.D. =0.006)
CC(C)C[C@@H](C=O)NC(=O)[C@H](CC(C)C)NC(=O)[C@H](CC(C)C)NC(=O)OCc1ccccc1 [MG 132] (Cbz-Leu-Leu-Leu-aldehyde),Median MEROS-GFP ratio (FACS),[1],increased
OO [H2O2],MEROS-GFP ratio (plate reader),[2],did not change the MEROS-GFP ratio
same,Median MEROS-GFP ratio (FACS),[1],did not change the MEROS-GFP ratio
tunicamycin,MANF mRNA levels,[7],Elevated levels of MANF mRNA
same,Median MEROS-GFP ratio (FACS),[1],increased
C[C@H]1CCC/C=C/[C@@H]2C[C@H](O)C[C@H]2[C@H](O)/C=C/C(=O)O1 [brefeldin A],Median MEROS-GFP ratio (FACS),[1],increased
C/C=C(/C)C(=O)O[C@H]1C(C)=C2[C@H]([C@@H]1OC(=O)CCCCCCC)[C@@](C)(OC(C)=O)C[C@H](OC(=O)CCC)[C@@]1(O)[C@H]2OC(=O)[C@@]1(C)O [thapsigargin],MANF mRNA levels,[7],Elevated levels of MANF mRNA
same,Soluble MANF protein in the medium,"[7]; thapsigargin 50 nM, FIG. 1",detected in the medium
same,MANF mRNA expression,[8],significant increase in MANF mRNA expression
same,Soluble MANF protein in the extracellular medium,[9]; FIGS. 5 and 6,production and release of soluble MANF protein into the extracellular medium
same,MANF mRNA expression,"[9]; two donors, FIG. 4",significant increase in MANF mRNA expression
same,Median MEROS-GFP ratio (FACS),[1],increased
CCCCC/C=C\C/C=C\CCCCCCCC(=O)O [linoleic acid],Palmitate-induced reduced ER (percentage of reduced cells),[10],significantly suppressed the ability of palmitate to create a reduced ER
CCCCCCCC/C=C\CCCCCCCC(=O)O [oleic acid],Palmitate-induced reduced ER (percentage of reduced cells),[10],significantly suppressed the ability of palmitate to create a reduced ER
